# Source: US20230266302A1, “SYNTHESIS AND USE OF N-BENZYL SULFONAMIDES” (THE UNIVERSITY OF TULSA, priority 2020, published 2023)
# Columns and labels:
# Assay in all cases: ATP level assay (CellTiter-Glo), percent of control
# Type in all cases: cell-based
# [1] = tested on: NCI-H196 (lung cancer); settings: two hour incubation; for activity at 100 µM: NCI-H196, 2 h, compound alone, control DMSO, read-out: POC (percent of control) NCI-H196
# Source text: (§1) In the present method, the method of using the available assays has been modified to measure the short-term effect of compounds of interest on ATP levels in the cells. […] In the modified method, the control and test cells are initially treated with the metabolic inhibitor for a period of about thirty minutes to about four hours. Typically, the treatment of the cells with the metabolic inhibitor is for one hour prior to adding the compound to be screened for anti-cancer properties. However, simultaneous treatment with the metabolic inhibitor and the compound being screened should provide satisfactory results. […] ATP synthesis in cells occurs over multiple biochemical pathways. These pathways are very responsive to metabolic inhibitors and/or changes in available nutrients. By incorporating a metabolic inhibitor which is known to impact certain pathways, the disclosed method provides for measurement of a compound's direct effects on the remaining metabolic pathways available for ATP synthesis in the cell.
# (§2) Following treatment of the control and test cells with the metabolic inhibitor, the method calls for addition of the compound to be screened for anti-cancer properties to the cells. Following addition of the compound of interest, the assay is allowed to continue for about one hour to about four hours or depending on the luminescing agent up to eighteen hours. However, approximately 60 minutes will be sufficient to determine the ATP inhibiting effect of the compound to be screened on the cells. Following completion of the selected time period, the ATP level within the cell is determined. ATP levels can be determined by luminescence according to standard measuring procedures, i.e. the luminescence level of the assay from the living cells treated with the two component composition is compared to the luminescence level of the assay from the living cells without the two component composition, i.e., the control experiment. Thus, the ATP levels are determined without killing the cells during the incubation of the cells in the presence of the compound of interest. As a result, the measured reduction in ATP level corresponds directly to the inhibition of the metabolic pathways uninhibited by the metabolic blocker.
# (§3) A wide variety of ATP luminescing detection reagents are available commercially. So long as the reagent produces a luminescence in the presence of ATP, the reagent will be suitable for use in the present method. Suitable reagents include but are not limited to any ATP dependent luciferase such as but not limited to firefly luciferase, other modified luciferase based reagents, i.e. luciferase derivatives. According to the rapid method for determining the anti-cancer activity of a compound, a sample of living cells is distributed across a number of testing wells. Typically, 96-well plates are used; however, the number of wells is not critical to the current method. When using a 96-well plate the number of living cells will commonly be about 20,000. The sample wells contain a cell growth medium to promote cell health and growth and an additive to prevent bacterial contamination of the wells. One common example of the cell growth medium is DMEM with 10% FBS as described above. One example of the additive to prevent bacterial contamination is a solution of penicillin G and streptomycin referred to commonly as Pen-Strep. The Pen-Strep solution typically contains 5000 units of penicillin G and 5000 micrograms of streptomycin. Thus, the rapid determination of anti-cancer compounds can be carried out using the following method. • The desired number of cells are distributed in a 96-well plate containing 100 μL DMEM plus 10% FBS with optional Pen-Strep. • After 24 hours, cells are treated with the compound of interest or a 5% solution of dimethyl sulfoxide (DMSO) in water as a control. • The time period for exposure to the compound of interest and the DMSO control will vary depending on the luminescing detection reagent. […]
# [2] = tested on: MDA-MB (breast cancer); settings: two hour incubation; for activity at 100 µM: 2 h, compound alone, control DMSO, read-out: POC (percent of control) MDA-MB
# Source text: as §1, §2, §3
# [3] = tested on: H293 (kidney cancer); settings: two hour incubation; for activity at 100 µM: 2 h, compound alone, control DMSO, read-out: POC (percent of control) H293
# Source text: as §1, §2, §3
# [4] = tested on: MCF7 (breast cancer); settings: two hour incubation; for activity at 100 µM: Homo sapiens, MCF7, 2 h, compound alone, control DMSO, read-out: POC (percent of control) MCF7
# Source text: as §1, §2, §3
# [5] = tested on: MCF10A (non-cancerous breast); settings: two hour incubation; for activity at 100 µM: Homo sapiens, MCF-10A, 2 h, compound alone, control DMSO, read-out: POC (percent of control) MCF10A
# Source text: as §1, §2, §3
# [6] = tested on: PC3 (prostate cancer); settings: two hour incubation; for activity at 100 µM: 2 h, compound alone, control DMSO, read-out: POC (percent of control) PC3
# Source text: as §1, §2, §3
# [7] = tested on: HDF (normal cells); settings: two hour incubation; for activity at 100 µM: 2 h, compound alone, control DMSO, read-out: POC (percent of control) HDF
# Source text: as §1, §2, §3
# [8] = tested on: SkBr3 (breast cancer); settings: two hour incubation; for activity at 100 µM: Homo sapiens, SK-BR-3, 2 h, compound alone, control DMSO, read-out: POC (percent of control) SkBr3
# Source text: as §1, §2, §3
# [9] = tested on: BxPC3 (pancreatic cancer); settings: two hour incubation; for activity at 100 µM: Homo sapiens, BXPC-3, 2 h, compound alone, control DMSO, read-out: POC (percent of control) BxPC3
# Source text: as §1, §2, §3
# [10] = tested on: T47D (breast cancer); settings: two hour incubation; for activity at 100 µM: Homo sapiens, T47D, 2 h, compound alone, control DMSO, read-out: POC (percent of control) T47D
# Source text: as §1, §2, §3
# [11] = tested on: HeLa (cervical cancer); settings: two hour incubation; for activity at 100 µM: Homo sapiens, HeLa, 2 h, compound alone, control DMSO, read-out: POC (percent of control) HeLa
# Source text: as §1, §2, §3
# [12] = compound 100 uM + 2DG (about 10-20 mM)
# [13] = compound 100 uM + rotenone (approximately 1.25 μM)
SMILES,activity at 100 µM [1] [%],"POC (percent of control) NCI-H196 [1, 12]","POC (percent of control) NCI-H196 [1, 13]",activity at 100 µM [2] [%],"POC (percent of control) MDA-MB [2, 12]","POC (percent of control) MDA-MB [2, 13]",activity at 100 µM [3] [%],"POC (percent of control) H293 [3, 12]","POC (percent of control) H293 [3, 13]",activity at 100 µM [4] [%],"POC (percent of control) MCF7 [4, 12]","POC (percent of control) MCF7 [4, 13]",activity at 100 µM [5] [%],"POC (percent of control) MCF10A [5, 12]","POC (percent of control) MCF10A [5, 13]",activity at 100 µM [6] [%],"POC (percent of control) PC3 [6, 12]","POC (percent of control) PC3 [6, 13]",activity at 100 µM [7] [%],"POC (percent of control) HDF [7, 12]",further results
"O=S(=O)(NCc1cncnc1)c1ccccc1 [Compound 15, N-(pyrimidin-5-ylmethyl)benzenesulfonamide]",92.3,115.4% of control,104.5% of control,108,91.2% of control,90.8% of control,99.8,74.7% of control,84.4% of control,148,103.4% of control,96.4% of control,105,122% of control,98.4% of control,109,117.6% of control,106.4% of control,89.2,100.2% of control,"POC (percent of control) HDF [7, 13]: 91.1% of control; activity at 100 µM [8]: 117%; POC (percent of control) SkBr3 [8, 12]: 123.3% of control; POC (percent of control) SkBr3 [8, 13]: 93% of control; activity at 100 µM [9]: 98.8%; POC (percent of control) BxPC3 [9, 12]: 70.8% of control; POC (percent of control) BxPC3 [9, 13]: 88.9% of control; activity at 100 µM [10]: 89.6%; POC (percent of control) T47D [10, 12]: 82.5% of control; POC (percent of control) T47D [10, 13]: 109.4% of control; activity at 100 µM [11]: 103%; POC (percent of control) HeLa [11, 12]: 113.9% of control; POC (percent of control) HeLa [11, 13]: 102.2% of control"
"COc1ccc(S(=O)(=O)NCc2c[nH]c3ccccc23)cc1 [Compound 23, N-(1H-indol-3-ylmethyl)-4-methoxybenzenesulfonamide]",93,83.5% of control,85.6% of control,98.6,85.9% of control,83% of control,92.1,47.4% of control,65.3% of control,96.3,93.6% of control,121.1% of control,85,82.8% of control,85.1% of control,77.3,92.9% of control,87.9% of control,74.6,90.6% of control,"POC (percent of control) HDF [7, 13]: 119.9% of control; activity at 100 µM [8]: 85.9%; POC (percent of control) SkBr3 [8, 12]: 75.5% of control; POC (percent of control) SkBr3 [8, 13]: 87.7% of control; activity at 100 µM [9]: 95.9%; POC (percent of control) BxPC3 [9, 13]: 78.5% of control; activity at 100 µM [10]: 54%; POC (percent of control) T47D [10, 12]: 46.6% of control; POC (percent of control) T47D [10, 13]: 71.7% of control; activity at 100 µM [11]: 84.1%; POC (percent of control) HeLa [11, 12]: 86.9% of control; POC (percent of control) HeLa [11, 13]: 93.7% of control"
"Cn1cc(CNS(=O)(=O)c2ccc(Cl)cc2)c2ccccc21 [Compound 29, 4-chloro-N-[(1-methyl-1H-indol-3-yl)methyl]benzenesulfonamide]",192,51.3% of control,100.3% of control,81.1,64.7% of control,69.7% of control,91.2,55% of control,50.5% of control,105,90.9% of control,98% of control,78.9,46.2% of control,62.7% of control,77.8,67.5% of control,67% of control,95.8,73% of control,"POC (percent of control) HDF [7, 13]: 81.5% of control; activity at 100 µM [8]: 102%; POC (percent of control) SkBr3 [8, 12]: 72.5% of control; POC (percent of control) SkBr3 [8, 13]: 78.6% of control; activity at 100 µM [9]: 80.8%; POC (percent of control) BxPC3 [9, 12]: 51.7% of control; POC (percent of control) BxPC3 [9, 13]: 52.7% of control; activity at 100 µM [10]: 90%; POC (percent of control) T47D [10, 12]: 60.7% of control; POC (percent of control) T47D [10, 13]: 77.6% of control; activity at 100 µM [11]: 80.9%; POC (percent of control) HeLa [11, 12]: 83.9% of control; POC (percent of control) HeLa [11, 13]: 93.1% of control"
"Cc1ccc(S(=O)(=O)NCc2ccc3c(cnn3C)c2)cc1 [Compound 9, 4-methyl-N-[(1-methyl-1H-indazol-5-yl)methyl]benzenesulfonamide]",93.1,86.1% of control,117.7% of control,95.6,91.7% of control,114% of control,83.3,76.6% of control,88.5% of control,117,75.8% of control,95.1% of control,89.6,88.3% of control,123.7% of control,90.4,89.3% of control,101.7% of control,86.4,88.5% of control,"POC (percent of control) HDF [7, 13]: 107.6% of control; activity at 100 µM [8]: 74.1%; POC (percent of control) SkBr3 [8, 12]: 89.9% of control; POC (percent of control) SkBr3 [8, 13]: 115.5% of control; activity at 100 µM [9]: 114%; POC (percent of control) BxPC3 [9, 12]: 57.6% of control; POC (percent of control) BxPC3 [9, 13]: 118.5% of control; activity at 100 µM [10]: 50.3%; POC (percent of control) T47D [10, 12]: 58.9% of control; POC (percent of control) T47D [10, 13]: 103.5% of control; activity at 100 µM [11]: 97.3%; POC (percent of control) HeLa [11, 12]: 80.5% of control; POC (percent of control) HeLa [11, 13]: 89.8% of control"
